Assay results reported in ChEMBL document CHEMBL4138209, “Inhibitory effects and structural insights for a novel series of coumarin-based compounds that selectively target human CA IX and CA XII carbonic anhydrases” (Eur J Med Chem, 2018).

How the values were obtained:
Carbonic anhydrase 9 = Carbonic anhydrase 9 (Homo sapiens, UniProt Q16790); test: Inhibition of human carbonic anhydrase 9 incubated for 15 mins prior to testing by stopped-flow CO2 hydration assay
Carbonic anhydrase 2 = Carbonic anhydrase 2 (Homo sapiens, UniProt P00918); test: Inhibition of human carbonic anhydrase 2 incubated for 15 mins prior to testing by stopped-flow CO2 hydration assay
Carbonic anhydrase 12 = Carbonic anhydrase 12 (Homo sapiens, UniProt O43570); test: Inhibition of human carbonic anhydrase 12 incubated for 15 mins prior to testing by stopped-flow CO2 hydration assay
Carbonic anhydrase 12, sequence (O43570 whole entry): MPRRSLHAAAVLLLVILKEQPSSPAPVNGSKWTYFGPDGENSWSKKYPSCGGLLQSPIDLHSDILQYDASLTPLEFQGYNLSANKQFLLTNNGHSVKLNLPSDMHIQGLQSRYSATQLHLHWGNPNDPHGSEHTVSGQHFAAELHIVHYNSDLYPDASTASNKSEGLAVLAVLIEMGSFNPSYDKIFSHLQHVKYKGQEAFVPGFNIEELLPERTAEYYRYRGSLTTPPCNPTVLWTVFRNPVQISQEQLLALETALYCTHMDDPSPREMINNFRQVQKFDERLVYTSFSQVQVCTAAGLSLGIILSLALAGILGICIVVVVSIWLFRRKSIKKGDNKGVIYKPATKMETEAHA

Carbonic anhydrase 1 = Carbonic anhydrase 1 (Homo sapiens, UniProt P00915); test: Inhibition of human carbonic anhydrase 1 incubated for 15 mins prior to testing by stopped-flow CO2 hydration assay
Carbonic anhydrase 1, sequence (P00915 whole entry): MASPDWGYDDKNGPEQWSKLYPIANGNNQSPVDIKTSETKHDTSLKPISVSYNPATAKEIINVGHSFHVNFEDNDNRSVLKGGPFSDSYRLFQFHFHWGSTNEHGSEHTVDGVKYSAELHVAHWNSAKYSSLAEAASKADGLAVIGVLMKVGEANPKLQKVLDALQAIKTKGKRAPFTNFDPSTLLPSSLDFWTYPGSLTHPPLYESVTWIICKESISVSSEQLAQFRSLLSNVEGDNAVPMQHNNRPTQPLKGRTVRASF

For `O=C(Oc1ccc2ccc(=O)oc2c1)c1ccccc1`, the Ki (Carbonic anhydrase 9) was 51.4 nM, the Ki (Carbonic anhydrase 2) was over 10000 nM and the Ki (Carbonic anhydrase 12) was 814 nM. The Ki (Carbonic anhydrase 1) was over 10000 nM.
In the case of `O=c1cc(-c2ccccc2Cl)c2ccc(O)cc2o1`, the Ki (Carbonic anhydrase 9) is reported as 30.8 nM, the Ki (Carbonic anhydrase 2) is reported as over 10000 nM and the Ki (Carbonic anhydrase 1) is reported as over 10000 nM.
Compound `Cc1c(O)ccc2c(-c3ccccc3)cc(=O)oc12` has a Ki (Carbonic anhydrase 9) of 39.5 nM, a Ki (Carbonic anhydrase 2) of over 10000 nM and a Ki (Carbonic anhydrase 12) of 402 nM. It also gave a Ki (Carbonic anhydrase 1) of over 10000 nM.
Work on `Cc1c(O)ccc2c(-c3ccc(Cl)cc3)cc(=O)oc12` yielded a Ki (Carbonic anhydrase 9) of 35.3 nM, a Ki (Carbonic anhydrase 2) of over 10000 nM and a Ki (Carbonic anhydrase 1) of over 10000 nM.
With `O=c1ccc2cc(O)ccc2o1` [6-HYDROXYCOUMARIN] the Ki (Carbonic anhydrase 9) was 30.5 nM, the Ki (Carbonic anhydrase 2) was over 10000 nM and the Ki (Carbonic anhydrase 12) was 33.9 nM. The Ki (Carbonic anhydrase 1) was over 10000 nM.
Compound `Cc1cccc(-c2cc(=O)oc3c(C)c(O)ccc23)c1` has a Ki (Carbonic anhydrase 9) of 37.4 nM, a Ki (Carbonic anhydrase 2) of over 10000 nM and a Ki (Carbonic anhydrase 1) of over 10000 nM.
`Cc1c(O)ccc2c(-c3cccc(Cl)c3)cc(=O)oc12` gave a Ki (Carbonic anhydrase 9) of 36.6 nM, a Ki (Carbonic anhydrase 2) of over 10000 nM and a Ki (Carbonic anhydrase 1) of over 10000 nM.
With `O=c1cc(-c2ccc(Cl)cc2)c2ccc(O)cc2o1` the Ki (Carbonic anhydrase 9) was 31.5 nM, the Ki (Carbonic anhydrase 2) was over 10000 nM and the Ki (Carbonic anhydrase 1) was over 10000 nM.
With `O=c1cc(-c2ccccc2F)c2ccc(O)cc2o1` the Ki (Carbonic anhydrase 9) was 31.8 nM, the Ki (Carbonic anhydrase 2) was over 10000 nM and the Ki (Carbonic anhydrase 1) was over 10000 nM.
`O=c1cc(-c2cccc(Cl)c2)c2ccc(O)cc2o1` was tested, and the Ki (Carbonic anhydrase 9) was 31 nM, the Ki (Carbonic anhydrase 2) was over 10000 nM and the Ki (Carbonic anhydrase 1) was over 10000 nM.
`CC(=O)Oc1ccc2ccc(=O)oc2c1` [7-ACETOXYCOUMARIN] showed a Ki (Carbonic anhydrase 9) of 40.2 nM, a Ki (Carbonic anhydrase 2) of over 10000 nM and a Ki (Carbonic anhydrase 12) of 573 nM. It also gave a Ki (Carbonic anhydrase 1) of over 10000 nM.
`O=c1ccc2cc(O)c(O)cc2o1` [ESCULETIN] gave a Ki (Carbonic anhydrase 9) of 36.4 nM, a Ki (Carbonic anhydrase 2) of over 10000 nM and a Ki (Carbonic anhydrase 12) of 9.3 nM. It also gave a Ki (Carbonic anhydrase 1) of over 10000 nM.
With `O=C(Oc1ccc2oc(=O)ccc2c1)c1ccccc1` the Ki (Carbonic anhydrase 9) was 29.9 nM, the Ki (Carbonic anhydrase 2) was over 10000 nM and the Ki (Carbonic anhydrase 1) was over 10000 nM.
`Cc1c(O)ccc2c(-c3ccc([N+](=O)[O-])cc3)cc(=O)oc12` was tested, and the Ki (Carbonic anhydrase 9) was 30.9 nM, the Ki (Carbonic anhydrase 2) was over 10000 nM and the Ki (Carbonic anhydrase 1) was over 10000 nM.
`CC(=O)Oc1cc2ccc(=O)oc2cc1OC(C)=O` gave a Ki (Carbonic anhydrase 9) of 116 nM, a Ki (Carbonic anhydrase 2) of over 10000 nM and a Ki (Carbonic anhydrase 1) of over 10000 nM.
Work on `O=C(Oc1cc2ccc(=O)oc2cc1OC(=O)c1ccccc1)c1ccccc1` yielded a Ki (Carbonic anhydrase 9) of 38.4 nM, a Ki (Carbonic anhydrase 2) of over 10000 nM and a Ki (Carbonic anhydrase 1) of over 10000 nM.
Compound `Cc1c(O)ccc2c(-c3ccc(N)cc3)cc(=O)oc12` has a Ki (Carbonic anhydrase 2) of over 10000 nM and a Ki (Carbonic anhydrase 1) of over 10000 nM.
Compound `Cc1ccc(-c2cc(=O)oc3c(C)c(O)ccc23)cc1` has a Ki (Carbonic anhydrase 9) of 38.2 nM, a Ki (Carbonic anhydrase 2) of over 10000 nM and a Ki (Carbonic anhydrase 1) of over 10000 nM.
`Nc1ccc(-c2cc(=O)oc3cc(O)ccc23)cc1` gave a Ki (Carbonic anhydrase 9) of 21.6 nM, a Ki (Carbonic anhydrase 2) of over 10000 nM and a Ki (Carbonic anhydrase 1) of over 10000 nM.
`Cc1c(O)ccc2c(-c3ccccc3F)cc(=O)oc12` gave a Ki (Carbonic anhydrase 9) of 95.9 nM, a Ki (Carbonic anhydrase 2) of over 10000 nM and a Ki (Carbonic anhydrase 1) of over 10000 nM.
Compound `O=c1cc(-c2ccccc2)c2ccc(O)cc2o1` has a Ki (Carbonic anhydrase 9) of 47.2 nM, a Ki (Carbonic anhydrase 2) of over 10000 nM and a Ki (Carbonic anhydrase 12) of 90.8 nM. For the same compound, the Ki (Carbonic anhydrase 1) was over 10000 nM.
In the case of `Cc1cccc(-c2cc(=O)oc3cc(O)ccc23)c1`, the Ki (Carbonic anhydrase 9) is reported as 17 nM, the Ki (Carbonic anhydrase 2) is reported as over 10000 nM and the Ki (Carbonic anhydrase 1) is reported as over 10000 nM.
`O=c1cc(-c2ccc([N+](=O)[O-])cc2)c2ccc(O)cc2o1` was tested, and the Ki (Carbonic anhydrase 9) was 20.3 nM, the Ki (Carbonic anhydrase 2) was over 10000 nM and the Ki (Carbonic anhydrase 12) was 6.5 nM. For the same compound, the Ki (Carbonic anhydrase 1) was over 10000 nM.
For `Cc1c(O)ccc2c(-c3ccccc3Cl)cc(=O)oc12`, the Ki (Carbonic anhydrase 9) was 27.5 nM, the Ki (Carbonic anhydrase 2) was over 10000 nM and the Ki (Carbonic anhydrase 1) was over 10000 nM.
Work on `Cc1ccc(-c2cc(=O)oc3cc(O)ccc23)cc1` yielded a Ki (Carbonic anhydrase 9) of 35.8 nM, a Ki (Carbonic anhydrase 2) of over 10000 nM and a Ki (Carbonic anhydrase 1) of over 10000 nM.
`CC(=O)Oc1ccc2oc(=O)ccc2c1` gave a Ki (Carbonic anhydrase 9) of 23.1 nM, a Ki (Carbonic anhydrase 2) of over 10000 nM and a Ki (Carbonic anhydrase 1) of over 10000 nM.
